Assay results published in patent US10021879B2, “Fumigant compositions and methods based on hexafluoropropylene oxide (HFPO)” (priority 2016, dated 2018).

Columns and labels:
Lolium multiflorum Lam = test: Fumigant test on seed germination in soil, Lolium multiflorum Lam; format: in vivo; conditions: for Loliium multiflorum Lam (seeds germinated): 15 seeds in soil, 2 days exposure, counted after 10 days
Procedure: (§1) In particular, in 440 mL pressure vessels, fourteen seeds of Abutilon theophrasti Medik and fifteen seeds of Lolium multiflorum Lam were thoroughly mixed with 50 mL (approximately 30 grams) of soil and 6 ml of water. The filled vessels were kept at room temperature for 20-24 hours to allow the seeds to imbibe water before treatment. The vessels were sealed and evacuated, and then 80 ml, 160 ml and 440 ml, respectively, of gaseous HFPO was added. The vessels were thoroughly mixed and placed horizontally on the laboratory bench at ambient temperature for two days. The contents of each bottle were transferred to a plastic sterile Petri dish containing 7 mL of water. The Petri dishes were sealed with parafilm and incubated in the laboratory at ambient temperature. After 10 days, the number of germinated seeds was counted.

[1] = test system: Abutilon theophrasti Medik; test: Fumigant test on seed germination in soil, Abutilon theophrasti Medik; format: in vivo; conditions: for Abutilon theophrastic Medik (seeds germinated): 14 seeds in soil, 2 days exposure, counted after 10 days
Procedure: as §1

[2] = Volatility of aqueous fumigant compositions with and without surfactant (weight loss); format: physicochemical; conditions: 10 grams HFPO + 4.0 grams Tween 80 in 40.0 grams water vs. 10.0 grams HFPO in 40 grams water; 20° C., vent open, weight loss every 30 seconds; FIG. 1
Procedure: Experimentation was carried out to determine the volatility of aqueous fumigant compositions, both with and without inclusion of a surfactant. In each case, HFPO was placed in a chilled 500 ml Fischer Porter tube that was equipped with a vent to remove any gases. The vessel was cooled to 0° C. and was charged with varying amounts of water, HFPO and surfactant. The temperature was equilibrated to 20° C. and the reactor was placed on a balance. The vent tube was opened and the weight loss was recorded every 30 seconds.
In analyzing the effects of adding surfactant to an aqueous solution of HFPO, 10.0 grams of HFPO was added to 40 grams of water. In a separate experiment, 10 grams of HFPO and 4.0 grams of Tween™ 80 were added to 40.0 grams of water. FIG. 1 provides a graphical representation of the numerical data comparing the volatility of an aqueous solution of HFPO, both with and without inclusion of the Tween™ 80 nonionic surfactant.

[3] = 80 ml gaseous HFPO in 440 mL vessel
[4] = 160 ml gaseous HFPO in 440 mL vessel
[5] = 440 ml gaseous HFPO in 440 mL vessel

FC(F)(F)C1(F)OC1(F)F (stereo not drawn) [HFPO, 1,2-hexafluoropropylene oxide]
Loliium multiflorum Lam (seeds germinated) (Lolium multiflorum Lam; [3]): 0 seeds germinated
Loliium multiflorum Lam (seeds germinated) (Lolium multiflorum Lam; [4]): 0 seeds germinated
Loliium multiflorum Lam (seeds germinated) (Lolium multiflorum Lam; [5]): 0 seeds germinated
seed germination (in words) (Lolium multiflorum Lam; seeds of the grass weed species Lolium multiflorum Lam): completely prevented seed germination
Abutilon theophrastic Medik (seeds germinated) [1, 3]: 0 seeds germinated
Abutilon theophrastic Medik (seeds germinated) [1, 4]: 0 seeds germinated
Abutilon theophrastic Medik (seeds germinated) [1, 5]: 0 seeds germinated
seed germination (in words) ([1]; seeds of the broadleaf species Abutilon theophrasti Medik): completely prevented seed germination
retention of HFPO in aqueous solution (volatility) [2]: inclusion of the surfactant provides for longer retention of the HFPO in solution
